{"source": "patent US20170319572A1", "about": "“COMBINATION DRUG TREATMENT FOR HEPATITIS C INFECTION” (JANSSEN PHARMACEUTICALS, INC., priority 2015, published 2017)", "key": {"[1]": {"assay": "Drug-drug interaction study in humans (Phase-1, open-label, two-group, fixed-sequence, PK)", "conditions": "for increase of exposure caused by SMV: co-administration of SMV", "protocol": "A drug-drug interaction study (DDI) study is a study designed to investigate whether a drug alters the pharmacokinetics of another drug or drugs or their metabolites.\nCompound (III)—Subjects received 800 mg of Compound (III) once daily from Days 1-3, Days 11-13, and Days 21-23. PK blood samples for determination of Compound (III) and metabolite concentrations were collected in reference to the Day 3, Day 13, and Day 23 doses.\nSimeprevir—Subjects received 150 mg of Simeprevir (SMV) once daily from Days 4-23. PK blood samples for determination of SMV concentrations were collected in reference to the Day 10, Day 13, Day 20, and Day 23 doses.\nOdalasvir—Subjects received a loading dose of 150 mg on Day 14, and 50 mg of Odalasvir once daily from Days 15-23. PK blood samples for determination of Odalasvir concentrations were collected in reference to the Day 20 and Day 23 doses.\nCompound (III)—Subjects received 800 mg of Compound (III) once daily from Days 1-3, Days 11-13 and Days 21-23. PK blood samples for determination of Compound (III) and metabolite concentrations were collected in reference to the Day 3, Day 13, and Day 23 doses.\nSimeprevir—Subjects receive 150 mg of SMV once daily from Days 4-23. PK blood samples for determination of SMV concentrations were collected in reference to the Day 20 and Day 23 doses.\nOdalasvir—Subjects receive a loading dose of 150 mg on Day 4, and 50 mg of Odalasvir once daily from Days 5-23. PK blood samples for determination of Odalasvir concentrations were collected in reference to the Day 10, Day 13, Day 20, and Day 23 doses.\nThis drug-drug interaction study was intended to assess the safety and tolerability of the described drug combinations at pre-defined time points throughout the study. Study completion/follow-up visit(s) were performed 7 and 28 days after completion of the last study assessment.\nA primary objective was to evaluate the effect of multiple oral doses of Odalasvir (alone), Simeprevir (alone), and Odalasvir and Simeprevir on the multiple oral dose PK of Compound (III) (and certain metabolites thereof, such as the major metabolites in systemic circulation) in healthy volunteers. Other objectives were to evaluate the safety and tolerability of multiple oral doses of Compound (III) when administered alone and in combination with single and multiple oral doses of Odalasvir and/or Simeprevir in healthy volunteers; to determine the potential effect of Compound of Compound (III) and/or Odalasvir on the steady-state PK of Simeprevir in healthy volunteers; to determine the potential effect of Compound of Compound (III) and/or Simeprevir on the steady state PK of Odalasvir in healthy volunteers.\nVarious other PK parameters were estimated including: Clast, t1/2, Tmax, Tlast, CL/F, Vz/F, and λz.\nThe following daily doses were employed:\nOdalasvir: 150 mg loading dose; 50 mg for the remainder of the study period."}, "[2]": {"biological_target": "T1, OATP1B1 (Homo sapiens, UniProt Q9Y6L6)", "T1 sequence (Q9Y6L6 1-691)": "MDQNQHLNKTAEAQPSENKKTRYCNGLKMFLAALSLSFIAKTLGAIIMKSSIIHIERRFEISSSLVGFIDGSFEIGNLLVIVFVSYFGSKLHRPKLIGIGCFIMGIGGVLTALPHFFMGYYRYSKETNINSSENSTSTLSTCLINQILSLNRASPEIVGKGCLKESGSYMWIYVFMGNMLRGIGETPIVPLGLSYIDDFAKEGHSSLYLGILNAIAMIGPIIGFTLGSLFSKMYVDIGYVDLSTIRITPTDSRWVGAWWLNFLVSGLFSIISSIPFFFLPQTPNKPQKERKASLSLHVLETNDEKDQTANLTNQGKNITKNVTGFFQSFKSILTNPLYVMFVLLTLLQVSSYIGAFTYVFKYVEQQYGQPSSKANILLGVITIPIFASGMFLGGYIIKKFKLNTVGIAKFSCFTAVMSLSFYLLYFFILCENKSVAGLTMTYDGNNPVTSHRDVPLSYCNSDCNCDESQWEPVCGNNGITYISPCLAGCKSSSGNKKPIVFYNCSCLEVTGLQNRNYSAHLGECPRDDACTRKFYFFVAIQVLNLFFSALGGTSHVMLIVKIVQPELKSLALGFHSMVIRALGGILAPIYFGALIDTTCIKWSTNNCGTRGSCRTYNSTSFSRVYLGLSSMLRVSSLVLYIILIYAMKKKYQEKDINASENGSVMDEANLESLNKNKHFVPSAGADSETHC", "conditions": "cited from earlier work"}, "[3]": {"biological_target": "T2, OATP1B3 (Homo sapiens, UniProt Q9NPD5)", "T2 sequence (Q9NPD5 1-702)": "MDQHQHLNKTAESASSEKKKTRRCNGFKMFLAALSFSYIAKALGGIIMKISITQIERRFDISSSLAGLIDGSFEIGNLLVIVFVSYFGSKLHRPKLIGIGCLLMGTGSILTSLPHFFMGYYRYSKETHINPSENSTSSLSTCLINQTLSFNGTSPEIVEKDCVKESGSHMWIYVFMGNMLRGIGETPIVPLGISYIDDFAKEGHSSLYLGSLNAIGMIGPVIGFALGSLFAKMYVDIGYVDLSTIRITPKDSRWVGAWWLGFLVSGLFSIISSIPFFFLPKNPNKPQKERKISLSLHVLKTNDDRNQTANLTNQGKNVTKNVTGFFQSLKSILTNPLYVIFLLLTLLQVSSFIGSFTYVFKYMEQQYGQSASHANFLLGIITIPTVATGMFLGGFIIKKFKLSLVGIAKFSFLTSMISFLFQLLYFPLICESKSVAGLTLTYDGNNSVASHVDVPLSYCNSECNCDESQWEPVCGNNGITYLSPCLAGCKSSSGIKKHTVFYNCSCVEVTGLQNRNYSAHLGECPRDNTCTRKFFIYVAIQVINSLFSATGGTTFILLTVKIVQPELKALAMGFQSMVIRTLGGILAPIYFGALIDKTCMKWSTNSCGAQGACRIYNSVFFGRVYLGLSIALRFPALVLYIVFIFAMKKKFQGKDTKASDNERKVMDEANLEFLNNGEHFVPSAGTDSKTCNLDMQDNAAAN", "conditions": "cited from earlier work"}, "[4]": {"tested_on": "CYP (any CYP)", "assay": "CYP inhibition", "conditions": "on any CYP"}}, "note": "Entries after “also recorded” stand apart in the source; their conditions may differ."}
{"smiles": "COC(=O)N[C@H](C(=O)N1[C@H](c2nc3cc(-c4cc5ccc4CCc4ccc(c(-c6ccc7[nH]c([C@@H]8C[C@@H]9CCCC[C@@H]9N8C(=O)[C@@H](NC(=O)OC)C(C)C)nc7c6)c4)CC5)ccc3[nH]2)C[C@@H]2CCCC[C@@H]21)C(C)C", "note": "[ODV, methyl [(2S)-1-[(2S,3aS,7aS)-2-[6-[11-[2-[(2S,3aS,7aS)-1-[(2S)-2-[(methoxycarbonyl)amino]-3-methylbutanoyl]octahydro-1H-indol-2-yl]-1H-benzimidazol-6-yl]tricyclo[8.2.2.2^4,7]hexadeca-1(12),4,6,10,13,15-hexaen-5-yl]-1H-benzimidazol-2-yl]octahydro-1H-indol-1-yl]-3-methyl-1-oxobutan-2-yl]carbamate]", "values": [{"measurement": "increase of exposure, effect of the three Compounds", "setting": "[1]; DDI study, Compound (III) + SMV + Odalasvir together", "result": 1.5, "unit": "×"}, {"measurement": "effect of Compound (III) on exposure/bioavailability", "setting": "[1]; DDI study, co-administration of Compound (III)", "result": "no apparent effect; also recorded: does not alter the bioavailability"}, {"measurement": "increase of exposure caused by SMV", "setting": "[1]; DDI study", "result": 1.6, "unit": "×"}, {"measurement": "increase of exposure in the combination", "setting": "[1]; human in vivo study (Example 1), three drugs combined", "result": 1.5, "unit": "times"}, {"measurement": "increase of exposure by SMV", "setting": "[1]; human subjects", "result": 1.6, "unit": "fold"}, {"measurement": "inhibition of OATP1B1", "setting": "[2]", "result": "no inhibition"}, {"measurement": "inhibition of OATP1B3", "setting": "[3]", "result": "no inhibition"}, {"measurement": "CYP inhibition potential", "setting": "[4]", "result": "does not inhibit cytochrome P450 enzymes; also recorded: does not inhibit CYP450 activity"}]}
{"smiles": "CC(C)OC(=O)[C@H](C)N[P@](=O)(OC[C@@]1(F)O[C@@H](n2ccc(=O)[nH]c2=O)[C@](C)(O)[C@@H]1O)Oc1ccccc1", "note": "[Compound (III), isopropyl ((S)-(((2S,3S,4R,5R)-5-(2,4-dioxo-3,4-dihydropyrimidin-1 (2H)-yl)-2-fluoro-3,4-dihydroxy-4-methyltetrahydrofuran-2-yl)methoxy)(phenoxy)phosphoryl)-L-alaninate]", "values": [{"measurement": "increase of exposure caused by Odalasvir", "setting": "[1]; DDI study, co-administration of Odalasvir", "result": 4, "unit": "×"}, {"measurement": "increase of exposure caused by SMV", "setting": "[1]; DDI study", "result": 3, "unit": "×"}, {"measurement": "Cmax", "setting": "[1]; Group 1, Day 13, Compound (III) 800 mg QD + SMV 150 mg QD", "result": 376.2, "unit": "ng/mL"}, {"measurement": "Cmax", "setting": "[1]; Group 1, Day 23, Compound (III) 800 mg + SMV 150 mg + ODV 50 mg QD", "result": 746.6, "unit": "ng/mL"}, {"measurement": "Cmax", "setting": "[1]; Group 2, Day 3, Compound (III) 800 mg QD alone", "result": 150.7, "unit": "ng/mL"}, {"measurement": "Cmax", "setting": "[1]; Group 2, Day 13, (Compound (III) + SMV) as printed in Table 1", "result": 515.9, "unit": "ng/mL"}, {"measurement": "Cmax", "setting": "[1]; Group 2, Day 23, Compound (III) 800 mg + SMV 150 mg + ODV 50 mg QD", "result": 949.6, "unit": "ng/mL"}, {"measurement": "increase of exposure in the combination", "setting": "[1]; both, human, in vivo", "result": "7-8 times"}, {"measurement": "Cmax", "setting": "[1]; healthy volunteers, Group 1, Day 3, Compound (III) 800 mg QD alone", "result": 161.6, "unit": "ng/mL"}, {"measurement": "bioavailability with SMV and ODV co-administered compared to Compound (III) alone", "setting": "[1]; human subjects", "result": "approximately 8 fold"}, {"measurement": "inhibition of OATP1B1", "setting": "[2]", "result": "no in vitro inhibition"}, {"measurement": "inhibition of OATP1B3", "setting": "[3]", "result": "no in vitro inhibition"}, {"measurement": "CYP inhibition potential", "setting": "[4]", "result": "limited CYP inhibition potential"}]}
